Test results published in ChEMBL document CHEMBL5137019, “Sattahipmycin, a Hexacyclic Xanthone Produced by a Marine-Derived Streptomyces” (J Nat Prod, 2022).
≈ marks a conversion by molar mass, not a printed value. Calls of active or inactive are those of the source. No cut-off for these calls is given here.

What was measured:
[1] = Cytotoxicity against human MRC5 cells assessed as cell growth inhibition and measured after 2 days by WST-8 assay; type: toxicity, cell-based
[2] = Selectivity index, ratio of IC50 for cytotoxicity against human MRC5 cells to IC50 for antimalarial activity against chloroquine-resistant Plasmodium falciparum K1; type: toxicity, cell-based; conditions: MRC5 cells versus Plasmodium falciparum K1, read-out: Ratio IC50
[3] = Selectivity index, ratio of IC50 for cytotoxicity against human MRC5 cells to IC50 for antimalarial activity against […] Plasmodium falciparum FCR3; type: toxicity, cell-based; conditions: MRC5 cells versus Plasmodium falciparum FCR3, read-out: Ratio IC50
[4] = test system: Plasmodium falciparum; experiment: Antimalarial activity against chloroquine-sensitive Plasmodium falciparum FCR3 assessed as parasite growth inhibition and measured after 72 hrs by ELISA; type: functional, organism-based; conditions: FCR3, 72 h
[5] = test system: Plasmodium falciparum; experiment: Antimalarial activity against chloroquine-resistant Plasmodium falciparum K1 assessed as parasite growth inhibition and measured after 72 hrs by ELISA; type: functional, organism-based; conditions: K1, 72 h
[6] = test system: Xanthomonas campestris pv. oryzae; experiment: Antibacterial activity against Xanthomonas campestris pv. oryzae KB88 at 1 to 30 ug per disc by paper disc method; type: functional, organism-based; conditions: dose 1-30 µg
[7] = test system: Bacillus subtilis; experiment: Antibacterial activity against Bacillus subtilis KB211 at 1 to 30 ug paper disc by paper disc method; type: functional, organism-based; conditions: dose 1-30 µg
[8] = test system: Escherichia coli; experiment: Antibiofilm activity against Escherichia coli NBRC 3972 assessed as inhibition of biofilm formation at 15 to 60 ug/ml incubated overnight by crystal violet staining based ELISA; type: functional; conditions: dose 15-60 µg/ml; at 15 to 60 µg/mL
[9] = test system: Xanthomonas campestris pv. oryzae; experiment: Antibacterial activity against Xanthomonas campestris pv. oryzae KB88 assessed as bacterial growth inhibition by paper disc method; type: functional
[10] = test system: HT-29; experiment: Cytotoxicity against human HT-29 cells assessed as cell growth inhibition and measured after 2 days by WST-8 assay; type: functional, cell-based; conditions: HT-29, 48 h
[11] = test system: Kocuria rhizophila; experiment: Antibacterial activity against Kocuria rhizophila KB212 assessed as bacterial growth inhibition by paper disc method; type: functional
[12] = test system: Bacillus subtilis; experiment: Antibacterial activity against Bacillus subtilis KB211 assessed as bacterial growth inhibition by paper disc method; type: functional
[13] = test system: Staphylococcus aureus; experiment: Antibacterial activity against Staphylococcus aureus KB210 at 1 to 30 ug per disc by paper disc method; type: functional, organism-based; conditions: dose 1-30 µg
[14] = test system: Staphylococcus aureus; experiment: Antibacterial activity against Staphylococcus aureus KB210 assessed as bacterial growth inhibition by paper disc method; type: functional
[15] = test system: PANC-1; experiment: Cytotoxicity against human PANC-1 cells assessed as cell growth inhibition and measured after 2 days by WST-8 assay; type: functional, cell-based; conditions: PANC-1, 48 h
[16] = test system: A549; experiment: Cytotoxicity against human A549 cells assessed as cell growth inhibition and measured after 2 days by WST-8 assay; type: functional, cell-based; conditions: A549, 48 h
[17] = test system: Escherichia coli; experiment: Bactericidal activity against Escherichia coli NBRC 3972; type: functional
[18] = test system: NCI-H1299; experiment: Cytotoxicity against human NCI-H1299 cells assessed as cell growth inhibition and measured after 2 days by WST-8 assay; type: functional, cell-based; conditions: NCI-H1299, 48 h
[19] = test system: Escherichia coli; experiment: Antibacterial activity against Escherichia coli NBRC 3972 assessed as bacterial growth inhibition by paper disc method; type: functional
[20] = test system: HeLa S3; experiment: Cytotoxicity against human HeLa S3 cells assessed as cell growth inhibition and measured after 2 days by WST-8 assay; type: functional, cell-based; conditions: HeLa S3, 48 h
[21] = test system: Micrococcus luteus; experiment: Antibacterial activity against Micrococcus luteus KB212 at 1 to 30 ug per disc by paper disc method; type: functional, organism-based; conditions: dose 1-30 µg

## CCN(CC)CCCC(C)Nc1ccnc2cc(Cl)ccc12 (configuration not stated) [CHLOROQUINE]
[1]
  IC50 at 2 days: 58.2 µM

## C[C@@H]1CC[C@H]2[C@@H](C)C(=O)O[C@@H]3O[C@@]4(C)CC[C@@H]1[C@]32OO4 [ARTEMISININ]
[2]
  selectivity ratio: 1580
[3]
  selectivity ratio: 2030
[4]
  IC50: 0.02 µM
[5]
  IC50: 0.03 µM
[1]
  IC50 at 2 days: 50.3 µM

## COc1c2c(c(O)c3c(=O)c4cccc(O)c4oc13)-c1c(cc3cc(C)[nH]c(=O)c3c1O)C[C@H]2O
[6]
  Activity: Active
[7]
  Activity: Active
[2]
  selectivity ratio: 0.62
[3]
  selectivity ratio: 0.85
[4]
  IC50: 0.2 µM
[8]
  inhibition (INH): 50%
[9]
  MIC: 0.25 µg/mL (≈ 0.528 µM)
[10]
  IC50: 1.9 µM
[11]
  MIC: 0.25 µg/mL (≈ 0.528 µM)
[12]
  MIC: 0.25 µg/mL (≈ 0.528 µM)
[13]
  Activity: Active
[14]
  MIC: 0.25 µg/mL (≈ 0.528 µM)
[5]
  IC50: 0.27 µM
[15]
  IC50: 12.9 µM
[16]
  IC50: 1.86 µM
[17]
  Activity: >250 µg/mL
[18]
  IC50: 10.6 µM
[19]
  MIC: > 250 µg/mL
[1]
  IC50 at 2 days: 0.17 µM
[20]
  IC50: 2.18 µM
[21]
  Activity: Active
